Results on 25 molecules are retold here after USRE46511E1, “Fused pyrimidine derivatives for inhibition of tyrosine kinase activity” (HANMI SCIENCE CO., LTD., priority 2010, dated 2017).

Format in all cases: cell-based
The test system of experiment [1] is HCC827 (EGFR DelE746_A750). Briefly: Inhibition test for growth of cancer cell expressing EGFR (SRB), HCC827.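 Also: cells in 96-well plates exposed to tenfold serial dilutions from 100 µM, fixed with trichloroacetic acid, SRB-stained, absorbance read at 540 nm, DMSO under 1%.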 To be noted: Homo sapiens, HCC827, 72 h, read-out: GI50 HCC827 EGFR DelE746_A750.
Method: (§1) A431 cell line was incubated in a high-glucose DMEM (Dulbecco's Modified Eagle's Medium) supplemented with 10% fetal bovine serum (FBS) and 1% penicillin/streptomycin (Gibco BRL), and HCC827 and NCI-H1975 cell lines were incubated in an RPMI medium supplemented with 10% FBS, 1% penicillin/streptomycin and 1% sodium pyruvate.
(§2) The cancer cell lines stored in a liquid nitrogen tank were each quickly thawed at 37° C., and centrifuged to remove the medium. The resulting cell pellet was mixed with a culture medium, incubated in a culture flask at 37° C. under 5% CO2 for 2 to 3 days, and the medium was removed. The remaining cells were washed with DPBS (Dulbecco's Phosphate Buffered Saline) and separated from the flask by using Tripsin-EDTA. […] 100 μl of the diluted cell solution was added to each well of a 96-well plate, and incubated at 37° C. under 5% CO2 for 1 day.
(§3) In case that the test compound was not soluble in DMSO, 1% HCl was added thereto and treated in a 40° C. water bath for 30 mins until a complete dissolution was attained. The DMSO solution containing test compound was diluted with a culture medium to a final concentration of 100 μM, and then diluted 10 times serially to 10^−6 μM (a final concentration of DMSO was less than 1%).
(§4) The medium was removed from each well of the 96-well plate. And then, 100 μl of a test compound solution was added to each well holding the cultured cells, and the plate was incubated at 37° C. under 5% CO2 for 72 hours (except that NCI-H1975 cells were incubated for 48 hours). After removing the medium from the plate, 50 μA of 10% trichloroacetic acid was added to each well, and the plate was kept at 4° C. for 1 hour to fix the cells to the bottom of the plate. The added 10% trichloroacetic acid solution was removed from each well, the plate was dried, 100 μA of an SRB (Sulforhodamine-B) dye solution at a concentration of 0.4% dissolved in 1% acetic acid was added thereto, and the resulting mixture was reacted for 10 mins at room temperature. After removing the dye solution, the plate was washed with water, and well dried. When the dye solution was not effectively removed by water, 1% acetic acid was used. 150 μA of 10 mM trisma base was added to each well, and the absorbance at 540 nm wavelength was determined with a microplate reader.
Experiment [2] has as its system NCI-H1975 (EGFR L858R/T790M). Briefly: Inhibition test for growth of cancer cell expressing EGFR (MTS), NCI-H1975. Conditions: Homo sapiens, read-out: GI50 NCI-H1975 EGFR L858R/T790M.
Method: as §1, §2, §3, §4
The subject of experiment [3] is A431 (EGFR WT). Kind of experiment: Inhibition test for growth of cancer cell expressing EGFR (SRB), A431.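 Also: cells in 96-well plates exposed to tenfold serial dilutions from 100 µM down to 10^−6 µM, DMSO under 1%, SRB staining read as absorbance at 540 nm.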 Conditions: Homo sapiens, read-out: GI50 A431 EGFR WT.
Method: as §1, §2, §3, §4
The mark [4] stands for this setting: A-431, A431 cells, 72 hours, SRB.

Like-named read-outs stand apart in the source and are kept apart here. Some results are limits rather than exact numbers.

For the molecule `C=CC(=O)Nc1ccc(F)c(Oc2nc(Nc3ccc(N4CCN(C)CC4)cc3)nc3ccsc23)c1` [Example 165], the GI50 in experiment [1] (HCC827 cells, 72 hours, SRB) was below 0.05 µM; in experiment [2] (NCI-H1975 cells, 48 hours, MTS), below 0.05 µM; in experiment [3] (setting [4]), above 1 µM.
For the molecule `C=CC(=O)Nc1cccc(Oc2nc(Nc3ccc(C4CCCN(C)C4)c(F)c3)nc3ccsc23)c1` (stereo not drawn) [Example 128], the GI50 in experiment [1] (HCC827 cells, 72 hours, SRB) is below 0.05 µM; in experiment [2] (NCI-H1975 cells, 48 hours, MTS), below 0.05 µM; in experiment [3] (setting [4]) it was above 1 µM.
For `C=CC(=O)Nc1cccc(Oc2nc(Nc3ccc(N4CCN(C5CCN(C)CC5)CC4)cc3)nc3ccsc23)c1` [Example 26], the GI50 in experiment [1] (HCC827 cells, 72 hours, SRB) was below 0.05 µM; in experiment [2] (NCI-H1975 cells, 48 hours, MTS), below 0.05 µM; in experiment [3] (setting [4]), above 1 µM.
In the case of `C=CC(=O)Nc1cccc(Oc2nc(Nc3ccc(CN4CCCCC4)cc3)nc3ccsc23)c1` [Example 178], the GI50 was below 0.05 µM in experiment [1] (HCC827 cells, 72 hours, SRB); below 0.05 µM in experiment [2] (NCI-H1975 cells, 48 hours, MTS); above 1 µM in experiment [3] (setting [4]).
On to `C=CC(=O)Nc1cccc(Oc2nc(Nc3ccc(C4CCN(C(C)C)CC4)cc3)nc3ccsc23)c1` [Example 54], for which the GI50 was below 0.05 µM in experiment [1] (HCC827 cells, 72 hours, SRB); below 0.05 µM in experiment [2] (NCI-H1975 cells, 48 hours, MTS); above 1 µM in experiment [3] (setting [4]).
As for `C=CC(=O)Nc1ccc(F)c(Nc2nc(Nc3ccc(N4CCN(C)CC4)cc3)nc3ccsc23)c1` [Example 218, N-(4-fluoro-3-(2-(4-(4-methyl-piperazin-1-yl)-phenylamino)-thieno[3,2-d]pyrimidin-4-ylamino)-phenyl)-acrylamide], the GI50 in experiment [1] (HCC827 cells, 72 hours, SRB) is below 0.05 µM; in experiment [2] (NCI-H1975 cells, 48 hours, MTS), 0.05 to 0.1 µM; in experiment [3] (setting [4]), above 1 µM.
Turning to `C=CC(=O)Nc1cccc(Oc2nc(Nc3ccc(CCN4CCN(S(=O)(=O)C=C)CC4)cc3)nc3ccsc23)c1` [Example 100], the GI50 was below 0.05 µM in experiment [1] (HCC827 cells, 72 hours, SRB); below 0.05 µM in experiment [2] (NCI-H1975 cells, 48 hours, MTS); above 1 µM in experiment [3] (setting [4]).
Consider `C=CC(=O)Nc1cccc(Oc2nc(Nc3ccc(CP(=O)(OC)OC)cc3)nc3ccsc23)c1` [Example 189], for which the GI50 in experiment [1] was below 0.05 µM; in experiment [2] (NCI-H1975, 48 h), below 0.05 µM; in experiment [3] (A-431, 72 h), above 1 µM.
Take `C=CC(=O)Nc1cccc(Oc2nc(Nc3ccc(N4CCN(C)CC4)c(OC)c3)nc3ccoc23)c1` [Example 234]: the GI50 in experiment [1] (HCC827 cells, 72 hours, SRB) was below 0.05 µM; in experiment [2] (NCI-H1975 cells, 48 hours, MTS) it was below 0.05 µM; in experiment [3] (setting [4]) it was above 1 µM.
As to `C=CC(=O)Nc1cccc(Oc2nc(Nc3ccc(N4CCSCC4)cc3)nc3ccsc23)c1` [Example 30], the GI50 in experiment [1] (HCC827 cells, 72 hours, SRB) is 0.1 to 1 µM; in experiment [2] (NCI-H1975 cells, 48 hours, MTS) it was below 0.05 µM; in experiment [3] (setting [4]) it was above 1 µM.
On to `C=CC(=O)Nc1cccc(Oc2nc(Nc3ccc(N4CCS(=O)(=O)CC4)cc3)nc3ccsc23)c1` [Example 32], for which the GI50 was below 0.05 µM in experiment [1] (HCC827 cells, 72 hours, SRB); below 0.05 µM in experiment [2] (NCI-H1975 cells, 48 hours, MTS); above 1 µM in experiment [3] (setting [4]).
For `C=CC(=O)Nc1cccc(Oc2nc(Nc3ccc(N4CCN(S(=O)(=O)CC)CC4)cc3)nc3ccsc23)c1` [Example 24], the GI50 was below 0.05 µM in experiment [1] (HCC827 cells, 72 hours, SRB); 0.05 to 0.1 µM in experiment [2] (NCI-H1975 cells, 48 hours, MTS); above 1 µM in experiment [3] (setting [4]).
As for `C=CC(=O)Nc1cccc(Oc2nc(Nc3ccc(C(C)N4CCN(CC)CC4)cc3)nc3ccsc23)c1` (stereo not drawn) [Example 184], the GI50 in experiment [1] (HCC827 cells, 72 hours, SRB) was below 0.05 µM; in experiment [2] (NCI-H1975 cells, 48 hours, MTS), below 0.05 µM; in experiment [3] (setting [4]), above 1 µM.
For the molecule `C=CC(=O)Nc1cccc(Oc2nc(Nc3ccc(S(=O)(=O)N4CCN(CC)CC4)cc3)nc3ccsc23)c1` [Example 76], the GI50 is below 0.05 µM in experiment [1] (HCC827 cells, 72 hours, SRB); 0.05 to 0.1 µM in experiment [2] (NCI-H1975 cells, 48 hours, MTS); above 1 µM in experiment [3] (setting [4]).
In the case of `C=CC(=O)Nc1cccc(Oc2nc(Nc3ccc(N4CCNCC4)cc3)nc3ccsc23)c1` [Example 158, N-(3-(2-(4-(piperazin-1-yl)phenylamino)-thieno[3,2-d]pyrimidine-4-yloxy)-phenyl)-acrylamide], the GI50 in experiment [1] (HCC827 cells, 72 hours, SRB) was below 0.05 µM; in experiment [2] (NCI-H1975 cells, 48 hours, MTS) it was 0.1 to 1 µM; in experiment [3] (setting [4]) it was above 1 µM.
Regarding `C=CC(=O)Nc1cccc(Oc2nc(Nc3ccc(C(=O)N4CCN(CC)CC4)cc3)nc3ccsc23)c1` [Example 90], the GI50 in experiment [1] (HCC827 cells, 72 hours, SRB) was below 0.05 µM; in experiment [2] (NCI-H1975 cells, 48 hours, MTS), below 0.05 µM; in experiment [3] (setting [4]), above 1 µM.
Regarding `C=CC(=O)Nc1cccc(Oc2nc(Nc3ccc(C(=O)NCCN4CCCC4)cc3)nc3ccsc23)c1` [Example 80], the GI50 in experiment [1] (HCC827 cells, 72 hours, SRB) was below 0.05 µM; in experiment [2] (NCI-H1975 cells, 48 hours, MTS), below 0.05 µM; in experiment [3] (setting [4]), above 1 µM.
As for `C=CC(=O)Nc1cccc(Oc2nc(Nc3ccc(N4CCN(C5CCCCC5)CC4)cc3)nc3ccsc23)c1` [Example 13], the GI50 in experiment [1] (HCC827 cells, 72 hours, SRB) was below 0.05 µM; in experiment [2] (NCI-H1975 cells, 48 hours, MTS), below 0.05 µM; in experiment [3] (setting [4]), 0.1 to 1 µM.
As for `C=CC(=O)Nc1cccc(Oc2nc(Nc3ccc(N4CCNCC4)c(Cl)c3)nc3ccsc23)c1` [Example 159], the GI50 in experiment [1] (HCC827 cells, 72 hours, SRB) was below 0.05 µM; in experiment [2] (NCI-H1975 cells, 48 hours, MTS), below 0.05 µM; in experiment [3] (setting [4]) it was above 1 µM.
As for `C=CC(=O)Nc1cccc(Oc2nc(Nc3ccc(N4CCN(CC)CC4)cn3)nc3ccsc23)c1` [Example 168], the GI50 in experiment [1] (HCC827 cells, 72 hours, SRB) was below 0.05 µM; in experiment [2] (NCI-H1975 cells, 48 hours, MTS), below 0.05 µM; in experiment [3] (setting [4]), above 1 µM.
Regarding `C=CC(=O)Nc1cccc(Oc2nc(Nc3ccc(N4CCN(S(C)(=O)=O)CC4)cc3)nc3ccsc23)c1` [Example 23], the GI50 in experiment [1] (HCC827 cells, 72 hours, SRB) was 0.05 to 0.1 µM; in experiment [2] (NCI-H1975 cells, 48 hours, MTS) it was below 0.05 µM; in experiment [3] (setting [4]), above 1 µM.
On to `C=CC(=O)Nc1cccc(Oc2nc(Nc3ccc(C4CCN(C)CC4)cc3)nc3ccsc23)c1` [Example 52], for which the GI50 in experiment [1] (HCC827 cells, 72 hours, SRB) was below 0.05 µM; in experiment [2] (NCI-H1975 cells, 48 hours, MTS), below 0.05 µM; in experiment [3] (setting [4]) it was above 1 µM.
With `C=CC(=O)Nc1cccc(Oc2nc(Nc3ccc(OCCN4CCOCC4)cc3)nc3ccsc23)c1` [Example 65], the GI50 was below 0.05 µM in experiment [1] (HCC827 cells, 72 hours, SRB); below 0.05 µM in experiment [2] (NCI-H1975 cells, 48 hours, MTS); above 1 µM in experiment [3] (setting [4]).
In the case of `C=CC(=O)Nc1cccc(Oc2nc(Nc3ccc(CN4CCN(C5CCN(C)CC5)CC4)cc3)nc3ccsc23)c1` [Example 186], the GI50 is below 0.05 µM in experiment [1] (HCC827 cells, 72 hours, SRB); below 0.05 µM in experiment [2] (NCI-H1975 cells, 48 hours, MTS); above 1 µM in experiment [3] (setting [4]).
For the molecule `C=CC(=O)Nc1cccc(Oc2nc(Nc3ccc(N4CCCCC4)cc3)nc3ccsc23)c1` [Example 37], the GI50 is 0.1 to 1 µM in experiment [1] (HCC827 cells, 72 hours, SRB); below 0.05 µM in experiment [2] (NCI-H1975 cells, 48 hours, MTS); above 1 µM in experiment [3] (setting [4]).
